Calls of active or inactive are those of the source. The rule behind the calls is not given here.
Key:
[1] = molecular target: T1, von Hippel-Lindau disease tumor suppressor/Son of sevenless homolog 1 (Homo sapiens) (UniProt Q07889+P40337); experiment: PROTAC activity at VHL/SOS1 in human HCT-116 cells harboring KRAS G13D mutant assessed as induction of SOS1 degradation by measuring maximal efficacy at 1 to 2000 nM incubated for 24 hrs by Immunoblot analysis relative to control; format: cell-based; conditions: dose 1-2000 nM
T1 sequence (P40337 whole entry, looked up): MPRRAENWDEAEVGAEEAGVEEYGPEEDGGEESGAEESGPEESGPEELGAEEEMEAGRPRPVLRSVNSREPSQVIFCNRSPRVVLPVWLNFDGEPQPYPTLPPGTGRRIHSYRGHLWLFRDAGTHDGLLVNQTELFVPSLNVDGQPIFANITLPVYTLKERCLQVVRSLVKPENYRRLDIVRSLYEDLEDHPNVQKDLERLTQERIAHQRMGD
T1 sequence (Q07889 whole entry, looked up): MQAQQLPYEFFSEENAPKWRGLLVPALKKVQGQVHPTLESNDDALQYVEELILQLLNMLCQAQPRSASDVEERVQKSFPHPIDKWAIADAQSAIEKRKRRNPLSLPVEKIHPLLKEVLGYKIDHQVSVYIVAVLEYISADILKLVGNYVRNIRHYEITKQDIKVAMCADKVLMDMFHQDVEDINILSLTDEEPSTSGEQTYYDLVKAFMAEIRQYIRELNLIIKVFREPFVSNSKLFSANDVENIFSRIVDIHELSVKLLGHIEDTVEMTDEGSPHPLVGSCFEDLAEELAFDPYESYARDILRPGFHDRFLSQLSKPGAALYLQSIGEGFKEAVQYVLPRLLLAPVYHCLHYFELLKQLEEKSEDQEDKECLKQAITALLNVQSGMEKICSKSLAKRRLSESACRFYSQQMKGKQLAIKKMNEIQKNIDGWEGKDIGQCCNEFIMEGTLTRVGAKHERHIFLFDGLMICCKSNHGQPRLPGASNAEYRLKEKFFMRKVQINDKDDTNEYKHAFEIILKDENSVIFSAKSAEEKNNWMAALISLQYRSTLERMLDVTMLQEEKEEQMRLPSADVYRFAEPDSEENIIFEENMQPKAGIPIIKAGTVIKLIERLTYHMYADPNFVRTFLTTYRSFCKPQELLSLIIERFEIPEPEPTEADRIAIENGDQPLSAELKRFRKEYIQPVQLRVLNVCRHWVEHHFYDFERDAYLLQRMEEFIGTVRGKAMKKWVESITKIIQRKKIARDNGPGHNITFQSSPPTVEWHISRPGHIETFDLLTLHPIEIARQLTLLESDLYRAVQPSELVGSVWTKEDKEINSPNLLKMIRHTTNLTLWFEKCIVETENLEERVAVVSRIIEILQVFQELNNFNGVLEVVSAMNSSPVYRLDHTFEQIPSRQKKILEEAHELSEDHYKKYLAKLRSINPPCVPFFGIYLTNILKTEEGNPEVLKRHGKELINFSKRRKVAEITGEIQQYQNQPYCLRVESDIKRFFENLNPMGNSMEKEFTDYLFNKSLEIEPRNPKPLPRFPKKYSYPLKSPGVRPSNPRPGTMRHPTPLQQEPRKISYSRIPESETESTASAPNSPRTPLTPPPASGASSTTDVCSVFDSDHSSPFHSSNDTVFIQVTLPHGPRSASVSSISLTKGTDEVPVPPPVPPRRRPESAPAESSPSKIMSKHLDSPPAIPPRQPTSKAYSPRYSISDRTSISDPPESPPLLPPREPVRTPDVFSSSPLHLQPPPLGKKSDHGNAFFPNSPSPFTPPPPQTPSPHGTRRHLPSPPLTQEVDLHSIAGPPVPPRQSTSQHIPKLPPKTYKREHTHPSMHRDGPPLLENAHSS

[2] = molecular target: T1, von Hippel-Lindau disease tumor suppressor/Son of sevenless homolog 1 (Homo sapiens); experiment: In vivo PROTAC activity at VHL/SOS1 in human ASPC1 cells harboring KRAS G12D mutant xenografted BALB/c nude mouse assessed as induction of SOS1 degradation administered intraperitoneally once daily for 3 weeks by immunohistochemistry analysis; format: functional; conditions: dose 10-20 mg/kg, route ip
[3] = molecular target: T1, von Hippel-Lindau disease tumor suppressor/Son of sevenless homolog 1 (Homo sapiens); experiment: PROTAC activity at VHL/SOS1 in human SW480 cells harboring KRAS G12V mutant assessed as induction of SOS1 degradation by measuring maximal efficacy at 1 to 2000 nM incubated for 24 hrs by Immunoblot analysis relative to control; format: cell-based; conditions: dose 1-2000 nM
[4] = molecular target: T1, von Hippel-Lindau disease tumor suppressor/Son of sevenless homolog 1 (Homo sapiens); experiment: PROTAC activity at VHL/SOS1 in human NCI-H358 cells harboring KRAS G12C mutant assessed as induction of SOS1 degradation at 1 uM preincubated with MG132 for 4 hrs followed by compound treatment and measured after 24 hrs by Immunoblot analysis; format: cell-based
[5] = system: ASPC1; experiment: Antitumor activity against human ASPC1 cells harboring KRAS G12D mutant xenografted in BALB/c nude mouse assessed as tumor growth inhibition at 10 mg/kg, ip administered once daily for 3 weeks relative to control; format: functional; conditions: ASPC1, 504 h, read-out: TGI
[6] = molecular target: T1, von Hippel-Lindau disease tumor suppressor/Son of sevenless homolog 1 (Homo sapiens); experiment: PROTAC activity at VHL/SOS1 in human SNU1 cells harboring KRAS G12D mutant assessed as induction of SOS1 degradation by measuring maximal efficacy at 1 to 2000 nM incubated for 24 hrs by Immunoblot analysis relative to control; format: cell-based; conditions: dose 1-2000 nM
[7] = system: SW-620; experiment: Antiproliferative activity against human SW620 cells harboring KRAS G12V mutant assessed as inhibition of cell proliferation incubated for 7 days by CellTiterGlo-3D proliferation assay; format: functional, cell-based; conditions: SW-620, 168 h
[8] = molecular target: T1, von Hippel-Lindau disease tumor suppressor/Son of sevenless homolog 1 (Homo sapiens); experiment: PROTAC activity at VHL/SOS1 in human SK-LU-1 cells harboring KRAS G12D mutant assessed as induction of SOS1 degradation by measuring maximal efficacy at 1 to 2000 nM incubated for 24 hrs by Immunoblot analysis relative to control; format: cell-based; conditions: dose 1-2000 nM
[9] = system: LoVo; experiment: Antiproliferative activity against human LoVo cells harboring KRAS G13D mutant assessed as inhibition of cell proliferation incubated for 7 days by CellTiterGlo-3D proliferation assay; format: functional, cell-based; conditions: 168 h
[10] = AUC in BALB/c mouse at 10 mg/kg, ip measured upto 24 hrs by LC-MS/MS analysis; format: ADME, organism-based; design: time < 24 hrs, dose 10 mg/kg, route ip; conditions: in vivo
[11] = molecular target: T1, von Hippel-Lindau disease tumor suppressor/Son of sevenless homolog 1 (Homo sapiens); experiment: In vivo PROTAC activity at VHL/SOS1 in human ASPC1 cells harboring KRAS G12D mutant xenografted BALB/c nude mouse assessed as induction of SOS1 degradation administered intraperitoneally once daily for 3 weeks by Immunoblot analysis; format: functional; conditions: dose 10-20 mg/kg, route ip
[12] = molecular target: T1, von Hippel-Lindau disease tumor suppressor/Son of sevenless homolog 1 (Homo sapiens); experiment: In vivo PROTAC activity at VHL/SOS1 in human SW620 cells harboring KRAS G12V mutant xenografted BALB/c nude mouse assessed as decrease in phosphorylated ERK expression at 10 to 20 mg/kg, ip administered once daily for 2 weeks by Immunoblot analysis; format: functional, organism-based; conditions: SW-620, dose 10-20 mg/kg
[13] = molecular target: T1, von Hippel-Lindau disease tumor suppressor/Son of sevenless homolog 1 (Homo sapiens); experiment: PROTAC activity at VHL/SOS1 in human ASPC1 cells harboring KRAS G12D mutant assessed as induction of SOS1 degradation by measuring maximal efficacy at 1 to 2000 nM incubated for 24 hrs by Immunoblot analysis relative to control; format: cell-based; conditions: dose 1-2000 nM
[14] = molecular target: T1, von Hippel-Lindau disease tumor suppressor/Son of sevenless homolog 1 (Homo sapiens); experiment: PROTAC activity at VHL/SOS1 in human HCT-116 cells harboring KRAS G13D mutant assessed as induction of SOS1 degradation at 1 uM incubated for 2 to 4 hrs by Immunoblot analysis; format: cell-based; conditions: time 2-4 hrs
[15] = molecular target: T1, von Hippel-Lindau disease tumor suppressor/Son of sevenless homolog 1 (Homo sapiens); experiment: PROTAC activity at VHL/SOS1 in human NCI-H358 cells assessed as induction of SOS1 protein degradation at 0.1 uM incubated for 24 hrs by Immunoblot analysis relative to control; format: cell-based
[16] = molecular target: T1, von Hippel-Lindau disease tumor suppressor/Son of sevenless homolog 1 (Homo sapiens); experiment: PROTAC activity at VHL/SOS1 in human NCI-H358 cells assessed as induction of SOS1 protein degradation by measuring maximal efficacy at 2 to 2000 nM incubated for 24 hrs by Immunoblot analysis relative to control; format: cell-based; conditions: dose 2-2000 nM
[17] = molecular target: von Hippel-Lindau disease tumor suppressor/Son of sevenless homolog 1 (Homo sapiens, UniProt P40337+Q07889, G12C); experiment: PROTAC activity at VHL/SOS1 in human MIA PaCa-2 cells harboring KRAS G12C mutant assessed as induction of SOS1 degradation incubated for 24 hrs by Immunoblot analysis; format: cell-based; conditions: pooled result: one value given for 16 cell lines, strains, targets or settings
von Hippel-Lindau disease tumor suppressor/Son of sevenless homolog 1 (Homo sapiens, UniProt P40337+Q07889, G12C), sequence (P40337 whole entry, looked up, stated change not applied): as the sequence (P40337 whole entry, looked up) above
von Hippel-Lindau disease tumor suppressor/Son of sevenless homolog 1 (Homo sapiens, UniProt P40337+Q07889, G12C), sequence (Q07889 whole entry, looked up, stated change not applied): as the sequence (Q07889 whole entry, looked up) above

[18] = system: SW-620; experiment: Antitumor activity against human SW620 cells harboring KRAS G12V mutant xenografted in BALB/c nude mouse assessed as tumor growth inhibition at 20 mg/kg, ip administered once daily for 2 weeks relative to control; format: functional; conditions: SW-620, 336 h, read-out: TGI
[19] = molecular target: T1, von Hippel-Lindau disease tumor suppressor/Son of sevenless homolog 1 (Homo sapiens); experiment: PROTAC activity at VHL/SOS1 in human ASPC1 cells harboring KRAS G12D mutant with shRNA lentivirus mediated VHL knockdown assessed as induction of SOS1 degradation at 1 uM incubated for 24 hrs by Immunoblot analysis; format: cell-based
[20] = system: ASPC1; experiment: Downregulation of ZCCHC10 in human ASPC1 cells at 1 uM incubated for 6 hrs by quantitative proteomics analysis; format: functional, cell-based
[21] = molecular target: T1, von Hippel-Lindau disease tumor suppressor/Son of sevenless homolog 1 (Homo sapiens); experiment: PROTAC activity at VHL/SOS1 in human SK-CO-1 cells harboring G12V mutant assessed as induction of SOS1 degradation by measuring maximal efficacy at 1 to 2000 nM incubated for 24 hrs by Immunoblot analysis relative to control; format: cell-based; conditions: dose 1-2000 nM
[22] = system: ASPC1; experiment: Antiproliferative activity against human ASPC1 cells harboring KRAS G12D mutant assessed as inhibition of cell proliferation incubated for 7 days by CellTiterGlo-3D proliferation assay; format: functional, cell-based; conditions: ASPC1, 168 h
[23] = system: ASPC1; experiment: Downregulation of ALKBH4 in human ASPC1 cells at 1 uM incubated for 6 hrs by quantitative proteomics analysis; format: functional, cell-based
[24] = molecular target: T1, von Hippel-Lindau disease tumor suppressor/Son of sevenless homolog 1 (Homo sapiens); experiment: PROTAC activity at VHL/SOS1 in human SW620 cells harboring KRAS G12V mutant assessed as induction of SOS1 degradation at 1 uM incubated for 8 hrs by Immunoblot analysis; format: cell-based
[25] = molecular target: T1, von Hippel-Lindau disease tumor suppressor/Son of sevenless homolog 1 (Homo sapiens); experiment: PROTAC activity at VHL/SOS1 in human A549 cells harboring KRAS G12S mutant assessed as induction of SOS1 degradation at 1 uM incubated for 2 to 4 hrs by Immunoblot analysis; format: cell-based; conditions: time 2-4 hrs
[26] = system: A549; experiment: Antiproliferative activity against human A549 cells harboring KRAS G12S mutant assessed as inhibition of cell proliferation incubated for 7 days by CellTiterGlo-3D proliferation assay; format: functional, cell-based; conditions: A549, 168 h
[27] = molecular target: von Hippel-Lindau disease tumor suppressor/Son of sevenless homolog 1 (Homo sapiens, UniProt P40337+Q07889, G12R); experiment: PROTAC activity at VHL/SOS1 in human CAL-62 cells harboring KRAS G12R mutant assessed as induction of SOS1 degradation incubated for 24 hrs by Immunoblot analysis; format: cell-based
von Hippel-Lindau disease tumor suppressor/Son of sevenless homolog 1 (Homo sapiens, UniProt P40337+Q07889, G12R), sequence (P40337 whole entry, looked up, stated change not applied): as the sequence (P40337 whole entry, looked up) above
von Hippel-Lindau disease tumor suppressor/Son of sevenless homolog 1 (Homo sapiens, UniProt P40337+Q07889, G12R), sequence (Q07889 whole entry, looked up, stated change not applied): as the sequence (Q07889 whole entry, looked up) above

SMILES: COc1cc2nc(C)nc(N[C@H](C)c3cc(N)cc(C(F)(F)F)c3)c2cc1C1CCN(C(=O)CCCCCC(=O)N[C@H](C(=O)N2C[C@H](O)C[C@H]2C(=O)N[C@@H](C)c2ccc(-c3scnc3C)cc2)C(C)(C)C)CC1
- Emax [1]: > 95%
- Activity [2]: Dose-Dependent Effect
- Emax [3]: > 95%
- Activity [4]: inactive
- inhibition in vivo at 10 mg/kg [5]: 38.8%
- Emax [6]: > 95%
- IC50 [7]: 18.5 nM
- Emax [8]: > 95%
- IC50 [9]: 44.5 nM
- AUC at 24 h [10]: 14100 ng·h/mL
- Activity [11]: Dose-Dependent Effect
- Activity [12]: Active
- Emax [13]: > 95%
- Activity [14]: Active
- Activity [15]: 83.9%
- Emax [16]: 100%
- EC50 [17]: 8.41 nM
- inhibition in vivo at 20 mg/kg [18]: 65.4%
- Activity [19]: inactive
- Activity [20]: Active
- Emax [21]: > 95%
- IC50 [22]: 6.97 nM
- Activity [23]: Active
- Activity [24]: Active
- Activity [25]: Active
- IC50 [26]: 105 nM
- EC50 [27]: 15 nM

Source: ChEMBL document CHEMBL5247656, “Discovery of a Potent, Cooperative, and Selective SOS1 PROTAC ZZ151 with In Vivo Antitumor Efficacy in KRAS-Mutant Cancers” (J Med Chem, 2023)
